Measured values published in patent US4371537A, “Sulfur-substituted phenoxypyridines having antiviral activity” (The Dow Chemical Company, priority 1981, dated 1983).
≈ marks a conversion by molar mass, not a printed value. Blank lines part the entries; values can stand above or below the compound they belong to.

Key:
RV-1A, RV-2 or Cox A21 = experiment: Summary of HeLa tissue culture testing against the test viruses; type: cell-based, rhinovirus types 1A and 2, Coxsackie A21 virus; details: for antiviral activity in tissue culture: active on RV-1A and RV-2 at a test concentration equivalent to the cytotoxic concentration
Protocol: (§1) Monolayered HeLa cells in 16 millimeter (mm) tissue culture dishes were treated with 1 ml of culture medium (Eagles medium supplemented with fetal calf serum) containing subject compound at an appropriate concentration or containing no compound at all. Culture media such as those described herein are more fully described in standard texts, as for example, Kuchler's Biochemical Methods in Cell Culture and Virology, Dowden, Hutchinson and Ross, Inc., Stroudsberg, PA (1977). Following treatment, cells were challenged with 0.05 ml of rhinovirus type 1A (RV-1A), rhinovirus type 2 (RV-2) or Coxsackie A21 virus (Cox A21) in culture medium. Some of the compounds were also tested against rhinovirus type 5 (RV-5), rhinovirus type 8 (RV-8) or rhinovirus type 64 (RV-64). Cell controls received no viruses.

Rhinovirus Type 75 = experiment: Inhibition of cytopathic effect in WI-38 cell culture tubes, rhinovirus type 75; type: cell-based; details: Enterovirus; 25 μg/ml; WI-38 cells; read-out: Inhibition grade, Rhinovirus Type 75
Protocol: (§2) The test compound was dissolved in an appropriate solvent (generally dimethyl sulfoxide) and incubated at 56° C. for at least 15 minutes and this solution was then used to prepare various test solutions having the desired concentration of test compound in preheated WI maintenance medium (49% Eagles, 49% medium 199, 2% fetal calf serum and antibiotics).
(§3) Triplicate cell culture tubes (WI-38 human embryonic lung cell culture tubes) were fed with 1 ml of medium containing the compound at specified concentrations and inoculated with 3-300 TCID50 (3-300 times the tissue culture infective dose 50, i.e., the dose required to infect 50% of the cell cultures tested). Simultaneous viral titrations were performed. The tissue cultures were supplemented with fresh medium when necessary (around 3-4 days) until viral titrations were completed.
(§4) The cell culture tubes were examined dialy for cytopathic effect. […] Comparisons were made at that time with the percentage of cell sheet destruction in tubes containing virus compound mixtures. Observed differences of 75% or more were graded "+", 74-50% as "±", and less than 50% as "-" inhibition.

Rhinovirus Type 39 = experiment: Inhibition of cytopathic effect in WI-38 cell culture tubes, rhinovirus type 39; type: cell-based; details: Enterovirus; 25 μg/ml; WI-38 cells; read-out: Inhibition grade, Rhinovirus Type 39
Protocol: as §2, §3, §4

Rhinovirus Type 21 = experiment: Inhibition of cytopathic effect in WI-38 cell culture tubes, rhinovirus type 21; type: cell-based; details: Enterovirus; 25 μg/ml; WI-38 cells; read-out: Inhibition grade, Rhinovirus Type 21
Protocol: as §2, §3, §4

Rhinovirus Type 58 = experiment: Inhibition of cytopathic effect in WI-38 cell culture tubes, rhinovirus type 58; type: cell-based; details: Enterovirus; 25 μg/ml; WI-38 cells; read-out: Inhibition grade, Rhinovirus Type 58
Protocol: as §2, §3, §4

rhinovirus type 2 (RV-2) = experiment: Tissue culture testing, rhinovirus type 2 in HeLa cells; type: cell-based; details: Enterovirus, 48 and 72 hours, NA = not active at the standard test conditions, read-out: RV-2: lowest concentration of the compound necessary to cause a 50 percent reduction in cytopathic effect
Procedure, shortened: (§5)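 Pretreat HeLa monolayer with test compound (Eagle's/FCS); infect; include cell controls lacking virus; read lowest effective concentration in μg/ml.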

[1] = system: Coxsackie A21 virus (Cox A21); experiment: Tissue culture testing, Coxsackie A21 virus in HeLa cells; type: cell-based; details: 48 and 72 hours, NA = not active at the standard test conditions, read-out: Cox A21: lowest concentration of the compound necessary to cause a 50 percent reduction in cytopathic effect
Procedure, shortened: as §5

rhinovirus type 5 (RV-5) = experiment: Tissue culture testing, rhinovirus type 5 in HeLa cells; type: cell-based; details: Enterovirus, 48 and 72 hours, NA = not active at the standard test conditions, read-out: RV-5: lowest concentration of the compound necessary to cause a 50 percent reduction in cytopathic effect
Protocol: as §1
(§6) ^2 Lowest concentration of the compound (μg/ml) necessary to cause

Rhinovirus Type 6 = experiment: Inhibition of cytopathic effect in WI-38 cell culture tubes, rhinovirus type 6; type: cell-based; details: Enterovirus; 25 μg/ml; WI-38 cells; read-out: Inhibition grade, Rhinovirus Type 6
Protocol: as §2, §3, §4

Cox A21 = experiment: Single Oral Dose test in mice challenged IP with Cox A21; type: in vivo, Swiss male mice; details: 600 mg/kg P.O. 3 h after IP challenge; >3.84 significant (95% confidence level)
Procedure, shortened: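 Swiss male mice (8-12 g) infected IP with a lethal Cox A21 dose (80-100% mortality within 10 days), then given a single oral dose of compound in 0.5% Methocel 3 h later. Deaths recorded daily for 7-10 days; modified Mantel-Haenzel chi-square versus virus controls, >3.84 significant.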

Rhinovirus Type 13 = experiment: Inhibition of cytopathic effect in WI-38 cell culture tubes, rhinovirus type 13; type: cell-based; details: Enterovirus; 25 μg/ml; WI-38 cells; read-out: Inhibition grade, Rhinovirus Type 13
Protocol: as §2, §3, §4

Rhinovirus Type 17 = experiment: Inhibition of cytopathic effect in WI-38 cell culture tubes, rhinovirus type 17; type: cell-based; details: Enterovirus; 25 μg/ml; WI-38 cells; read-out: Inhibition grade, Rhinovirus Type 17
Protocol: as §2, §3, §4

Hanks Untyped = experiment: Inhibition of cytopathic effect in WI-38 cell culture tubes, Hanks Untyped; type: cell-based, rhinovirus; details: Enterovirus; 25 μg/ml; WI-38 cells; read-out: Inhibition grade, Hanks Untyped
Protocol: as §2, §3, §4

Rhinovirus Type 74 = experiment: Inhibition of cytopathic effect in WI-38 cell culture tubes, rhinovirus type 74; type: cell-based; details: Enterovirus; 25 μg/ml; WI-38 cells; read-out: Inhibition grade, Rhinovirus Type 74
Protocol: as §2, §3, §4

Rhinovirus Type 29 = experiment: Inhibition of cytopathic effect in WI-38 cell culture tubes, rhinovirus type 29; type: cell-based; details: Enterovirus; 25 μg/ml; WI-38 cells; read-out: Inhibition grade, Rhinovirus Type 29
Protocol: as §2, §3, §4

Rhinovirus Type 68 = experiment: Inhibition of cytopathic effect in WI-38 cell culture tubes, rhinovirus type 68; type: cell-based; details: Enterovirus; 25 μg/ml; WI-38 cells; read-out: Inhibition grade, Rhinovirus Type 68
Protocol: as §2, §3, §4

rhinovirus type 8 (RV-8) = experiment: Tissue culture testing, rhinovirus type 8 in HeLa cells; type: cell-based; details: Enterovirus, 48 and 72 hours, NA = not active at the standard test conditions, read-out: RV-8: lowest concentration of the compound necessary to cause a 50 percent reduction in cytopathic effect
Protocol: as §1, §6

Rhinovirus Type 60 = experiment: Inhibition of cytopathic effect in WI-38 cell culture tubes, rhinovirus type 60; type: cell-based; details: Enterovirus; 25 μg/ml; WI-38 cells; read-out: Inhibition grade, Rhinovirus Type 60
Protocol: as §2, §3, §4

Rhinovirus Type 64 = experiment: Inhibition of cytopathic effect in WI-38 cell culture tubes, rhinovirus type 64; type: cell-based; details: Enterovirus; 25 μg/ml; WI-38 cells; read-out: Inhibition grade, Rhinovirus Type 64
Protocol: as §2, §3, §4

[2] = Cytotoxicity in tissue culture testing (HeLa monolayers); type: cell-based; details: human; HeLa cells; observed at 48 and 72 hours post-treatment; read-out: Cytotoxicity: concentration of the compound found to be toxic to the cell
Procedure, shortened: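 HeLa monolayers treated with compound in Eagle's medium with fetal calf serum, then challenged with rhinovirus (RV-1A, RV-2, some RV-5, RV-8, RV-64) or Coxsackie A21. Untreated and virus-free cell controls included.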

[3] = system: rhinovirus type 1A (RV-1A); experiment: Tissue culture testing, rhinovirus type 1A in HeLa cells; type: cell-based; details: Enterovirus, 48 and 72 hours, NA = not active at the standard test conditions, read-out: RV-1A: lowest concentration of the compound necessary to cause a 50 percent reduction in cytopathic effect
Procedure, shortened: as §5

Rhinovirus Type 81 = experiment: Inhibition of cytopathic effect in WI-38 cell culture tubes, rhinovirus type 81; type: cell-based; details: Enterovirus; 25 μg/ml; WI-38 cells; read-out: Inhibition grade, Rhinovirus Type 81
Protocol: as §2, §3, §4

Rhinovirus Type 4 = experiment: Inhibition of cytopathic effect in WI-38 cell culture tubes, rhinovirus type 4; type: cell-based; details: Enterovirus; 25 μg/ml; WI-38 cells; read-out: Inhibition grade, Rhinovirus Type 4
Protocol: as §2, §3, §4

Rhinovirus Type 59 = experiment: Inhibition of cytopathic effect in WI-38 cell culture tubes, rhinovirus type 59; type: cell-based; details: Enterovirus; 25 μg/ml; WI-38 cells; read-out: Inhibition grade, Rhinovirus Type 59
Protocol: as §2, §3, §4

Rhinovirus Type 56 = experiment: Inhibition of cytopathic effect in WI-38 cell culture tubes, rhinovirus type 56; type: cell-based; details: Enterovirus; 25 μg/ml; WI-38 cells; read-out: Inhibition grade, Rhinovirus Type 56
Protocol: as §2, §3, §4

Rhinovirus Type 19 = experiment: Inhibition of cytopathic effect in WI-38 cell culture tubes, rhinovirus type 19; type: cell-based; details: Enterovirus; 25 μg/ml; WI-38 cells; read-out: Inhibition grade, Rhinovirus Type 19
Protocol: as §2, §3, §4

Rhinovirus Type 8 = experiment: Inhibition of cytopathic effect in WI-38 cell culture tubes, rhinovirus type 8; type: cell-based; details: Enterovirus; 25 μg/ml; WI-38 cells; read-out: Inhibition grade, Rhinovirus Type 8
Protocol: as §2, §3, §4

Rhinovirus Type 10 = experiment: Inhibition of cytopathic effect in WI-38 cell culture tubes, rhinovirus type 10; type: cell-based; details: Enterovirus; 25 μg/ml; WI-38 cells; read-out: Inhibition grade, Rhinovirus Type 10
Protocol: as §2, §3, §4

Coxsackie A21 virus = experiment: Continuous Oral Feeding test in mice challenged IP with Coxsackie A21 virus; type: in vivo; details: po, 0.06 % in diet, 240 h
Procedure, shortened: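 Mice (8 to 12 g) fed rodent chow containing 0.06% (weight percent) test compound from day 0, challenged IP on day 1 with 0.2 ml HeLa-grown virus at a dose giving 80 to 100% deaths within 10 days. Deaths recorded over 10 days versus controls; chi-square test, values >3.84 taken as active (95% confidence).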

Compound: CS(=O)(=O)c1cccc(Oc2ccc(Br)cc2)n1 [2-(4-bromophenoxy)-6-(methylsulfonyl)pyridine]
- antiviral activity in tissue culture (RV-1A, RV-2 or Cox A21): only marginally active

Compound: CS(=O)(=O)c1ccc(Oc2ccc(Cl)c(Cl)c2)nc1 [Example 40, 2-(3,4-dichlorophenoxy)-5-(methylsulfonyl)pyridine]
- inhibition at 25 µg/mL (Rhinovirus Type 75): < 50%
- inhibition at 25 µg/mL (Rhinovirus Type 39): ≥ 75%
- inhibition at 25 µg/mL (Rhinovirus Type 21): ≥ 75%
- inhibition at 25 µg/mL (Rhinovirus Type 58): ≥ 75%
- EC50 (rhinovirus type 2 (RV-2)): 0.625 µg/mL (≈ 1.96 µM)
- EC50 [1]: ≤ 6.25 µg/mL
- EC50 (rhinovirus type 5 (RV-5)): 25 µg/mL (≈ 78.6 µM)
- inhibition at 25 µg/mL (Rhinovirus Type 6): < 50%
- Single Oral Dose X^2 (chi-square, deaths vs virus control) (Cox A21): 22.807
- inhibition at 25 µg/mL (Rhinovirus Type 13): ≥ 75%
- inhibition at 25 µg/mL (Rhinovirus Type 17): ≥ 75%
- inhibition at 25 µg/mL (Hanks Untyped): ≥ 75%
- inhibition at 25 µg/mL (Rhinovirus Type 74): ≥ 75%
- inhibition at 25 µg/mL (Rhinovirus Type 29): ≥ 75%
- inhibition at 25 µg/mL (Rhinovirus Type 68): ≥ 75%
- EC50 (rhinovirus type 8 (RV-8)): ~12.5 µg/mL (≈ 39.3 µM)
- inhibition at 25 µg/mL (Rhinovirus Type 60): 50 to 74%
- inhibition at 25 µg/mL (Rhinovirus Type 64): ≥ 75%
- MCC [2]: 50 µg/mL
- EC50 [3]: ≤ 0.31 µg/mL
- inhibition at 25 µg/mL (Rhinovirus Type 81): ≥ 75%
- inhibition at 25 µg/mL (Rhinovirus Type 4): < 50%
- inhibition at 25 µg/mL (Rhinovirus Type 59): 50 to 74%
- inhibition at 25 µg/mL (Rhinovirus Type 56): ≥ 75%
- inhibition at 25 µg/mL (Rhinovirus Type 19): ≥ 75%
- inhibition at 25 µg/mL (Rhinovirus Type 8): < 50%
- inhibition at 25 µg/mL (Rhinovirus Type 10): ≥ 75%

Compound: CC(C)S(=O)(=O)c1ccc(Oc2ccc(C(=O)c3ccccc3)cc2)nc1 [Example 51]
- Continuous Oral Feeding X^2 (chi-square, deaths vs control) (Coxsackie A21 virus): 17.705
- EC50 (rhinovirus type 2 (RV-2)): 2 µg/mL (≈ 5.24 µM)
- Single Oral Dose X^2 (chi-square, deaths vs virus control) (Cox A21): 3.085
- antiviral activity in initial tissue culture testing (RV-1A, RV-2 or Cox A21; initial test): did not show activity against the test viruses
- antiviral activity on retest (RV-1A, RV-2 or Cox A21; retest (data in Table 3), RV-1A and RV-2): did show activity against RV-1A and RV-2
- MCC [2]: 4 µg/mL
- EC50 [3]: 4 µg/mL (≈ 10.5 µM)

Compound: CCS(=O)(=O)c1cccnc1Oc1ccc(Cl)c(Cl)c1 [2-(3,4-dichlorophenoxy)-3-(ethylsulfonyl)pyridine]
- antiviral activity in tissue culture (RV-1A, RV-2 or Cox A21): only marginally active

- EC50 (rhinovirus type 2 (RV-2)): ~50 µg/mL (≈ 136 µM)
- EC50 [3]: 50 µg/mL (≈ 136 µM)
Compound: CCS(=O)(=O)c1cccnc1Oc1ccc(C(=O)c2ccccc2)cc1 [Example 74]
- antiviral activity in tissue culture (RV-1A, RV-2 or Cox A21): only marginally active
- MCC [2]: 50 µg/mL
